# Reference: US20140093585A1, “PARP INHIBITORS FOR THE TREATMENT OF CIPN” (AbbVie Inc., priority 2011, published 2014)
# “Also recorded” adds a separate entry of the source.
# Key:
# [1] = system: vincristine model of chemotherapy-induced pain; test: Vincristine model of chemotherapy-induced pain: mechanical threshold with von Frey monofilaments; assay type: in vivo, rats; settings: for development of mechanical allodynia (mechanical threshold, von Frey): vincristine 30 ug/kg/day for 12 days; for reversal of mechanical allodynia (von Frey), positive control: rats receiving vincristine, morphine 6 mg/kg i.p. acutely on each day of testing
# Method: Rats were administered a PARP Inhibitor, 2-[(2R)-2-methylpyrrolidin-2-yl]-1H-benzimidazole-4-carboxamide (Compound A) or 6-fluoro-2-(2-methylpyrrolidin-2-yl)-1H-benzimidazole-4-carboxamide (Compound B), at doses of 25 mg/kg/day or 50 mg/kg/day (i.p.), for two days prior to the initiation of vincristine. After two days or pre-dosing with the PARP inhibitor, two minipumps were implanted in rats. Vincristine was administered via a subcutaneous mini-osmotic pump that delivered 30 ug/kg/day (i.v) for twelve days. PARP Inhibitor, Compound A or Compound B, or vehicle was administered via a subcutaneous mini-osmotic pump that delivered 25 mg/kg/day, 50 mg/kg/day, or vehicle (i.p.) for twelve days. A positive control group of rats receiving vincristine were dosed acutely with morphine (6 mg/kg, i.p.) on each day of testing. A negative control group of rats received saline. Mechanical threshold was determined for all rats using von Frey monofilaments at 5, 9 and 12 days following initiation of vincristine administration (days 7, 11 and 14 of compound delivery, respectively) for Compound A, and at 3, 6 and 10 days following initiation of vincristine administration (days 5, 8 and 12 of compound delivery, respectively) for Compound B. Mechanical allodynia was observed on all testing days in rats treated with vincristine compared to the naïve group.
# Rats were administered a PARP Inhibitor, 2-[(2R)-2-methylpyrrolidin-2-yl]-1H-benzimidazole-4-carboxamide (Compound A), at doses of 25 mg/kg/day or 50 mg/kg/day (i.p., bid) for two days prior to the initiation of vincristine. After two days or pre-dosing with ABT-888, two minipumps were implanted in rats. Vincristine was administered via a subcutaneous mini-osmotic pump that delivered 30 ug/kg/day (i.v) for twelve days. Compound A or vehicle was administered via a subcutaneous mini-osmotic pump that delivered 25 mg/kg/day or 50 mg/kg/day (i.p.) for twelve days. A positive control group of rats receiving vincristine were dosed with acutely morphine (6 mg/kg, i.p.) on each day of testing. A negative control group of rats received saline. Mechanical threshold was determined for all rats using von Frey monofilaments on 5, 9 and 12 days following initiation of vincristine administration (days 7, 11 and 14 of compound delivery, respectively). Mechanical allodynia was observed on all testing days in rats treated with vincristine compared to the naïve group.
# Vincristine (i.v, […]) was administered by mini-pump for twelve days. Rats were divided into four groups: Group 1: Vehicle; Group 2: 1-(2-fluoro-5-((4-oxo-3,4,5,6,7,8-hexahydrophthalazin-1-yl)methyl)phenyl)pyrrolidine-2,5-dione (Compound D), 25 mg/kg/day; Group 3: Compound D, 50 mg/kg/day; Group 4: Vehicle+Positive control (morphine). Groups 2 and 3 were pretreated with their respective dose of Compound D (either 25 mg/kg or 50 mg/kg, ip) for two days prior to co-dosing with vincristine. Rats in the positive control group were dosed with vehicle by mini-pump and were acutely administered morphine on day of testing. Mechanical threshold was determined using von Frey monofilaments on days 5, 9, and 12 post-mini-pump implantation. Plasma and brain were collected on day 12. […] Anti-nociceptive efficacy was dose-dependent and observed on days 5, 9, and 12 (FIG. 10).
# PAR (pADPr) = test: PAR levels in glabrous hindpaw skin biopsies, ELISA measuring pADPr; assay type: in vivo, rats; settings: Example 4; skin biopsies on day 12 of Example 3; Compound A 25 mg/kg and 50 mg/kg; FIG. 8
# Method: Following behavioral testing on day 12 in Example 3, skin biopsies were taken from glabrous hindpaw skin from rats in the naïve, vincristine, and vincristine+Compound A groups (n=5 per group). PAR levels were assessed using ab ELISA assay to measure pADPr as previously described (Liu et al., 2008). PAR levels in skin were increased by vincristine, as compared to the saline group.
# cisplatin model = test: Cisplatin model: behavioral assays (von Frey mechanical threshold, paw withdrawal latency from radiant heat); assay type: in vivo; settings: mice, cisplatin cumulative 23 mg/kg, Compound C 25 or 50 mg/kg/day i.p.
# Method: (§1) Mice were administered a PARP Inhibitor, 2-[(2S)-2-methylpyrrolidin-2-yl]-1H-benzimidazole-4-carboxamide (Compound C) at doses of 25 mg/kg/day or 50 mg/kg/day (i.p.) for two days prior to the initiation of cisplatin. The 50 mg/kg dose of Compound C was administered (i.p.) for two days prior to oxaliplatin administration. After two days of pre-dosing with the PARP Inhibitor, mice were co-administered Compound C with cisplatin or oxaliplatin for 5 days (daily injections, i.p.), followed by 5 days off, followed by 5 daily injections (i.p.). Cumulative dose of cisplatin was 23 mg/kg. Cumulative dose of oxaliplatin was 30 mg/kg. Behavioral assays were performed on all groups of mice before dosing, and then at weeks 3, 6, and 8. Behavioral assays including determining mechanical threshold with von Frey monofilaments, determining, latency to paw withdrawal from a radiant heat source, and number of paw lifts from a cold plate.
# oxaliplatin model = test: Oxaliplatin model: behavioral assays (von Frey mechanical threshold, paw lifts from cold plate); assay type: in vivo; settings: mice, oxaliplatin cumulative 30 mg/kg, Compound C 50 mg/kg i.p.
# Method: as §1
# [2] = system: digital nerve SNAP amplitude, cisplatin-treated mice; test: Nerve conduction study: sensory nerve action potential (SNAP) recording from the digital nerve after cisplatin; assay type: in vivo; settings: Example 5, cisplatin 2.3 mg/kg/day i.p., Compound C 25 or 50 mg/kg/day (i.p., bid), week 3, FIG. 9
# Method: Mice were administered a PARP Inhibitor, 2-[(2S)-2-methylpyrrolidin-2-yl]-1H-benzimidazole-4-carboxamide (Compound C), at doses of 25 mg/kg/day or 50 mg/kg/day (i.p., bid), for two days prior to the initiation of cisplatin. After two days or pre-dosing with Compound C, mice were co-dosed with the PARP inhibitor (25 mg/kg/day or 50 mg/kg/day) and cisplatin (2.3 mg/kg/day, i.p.). The dosing regimen consisted for 5 daily co-injections, followed by 5 days off, and then a repeat of 5 daily co-injection. Nerve conduction studies were performed after the final injections in week 3. Sensory nerve action potential (SNAP) recordings were made from the digital nerve. Cisplatin induced a decrease in amplitude in SNAP recording from the digital nerve, an effect that was prevented by 2-[(2S)-2-methylpyrrolidin-2-yl]-1H-benzimidazole-4-carboxamide (Compound C) treatment (FIG. 9).
compound,measurement,setting,value
"C[C@]1(c2nc3c(C(N)=O)cccc3[nH]2)CCCN1 [Compound A, 2-[(2R)-2-methylpyrrolidin-2-yl]-1H-benzimidazole-4-carboxamide]","development of mechanical allodynia (mechanical threshold, von Frey)","[1]; Example 1, rats, Compound A 25 or 50 mg/kg/day i.p., 2 days pre-dosing then mini-pump 12 days, tested 5, 9 and 12 days after vincristine start, FIG. 1",attenuated development of mechanical allodynia; also recorded: prevention of vincristine-mediated pain
same,"development of mechanical allodynia (mechanical threshold, von Frey)","[1]; Example 3, rats, Compound A 25 or 50 mg/kg/day (i.p., bid pre-dosing 2 days, then mini-pump 12 days), tested days 5, 9 and 12, FIG. 7",attenuated development of mechanical allodynia; also recorded: prevention of vincristine-mediated pain
same,vincristine-mediated PAR activation (PAR levels) in rat glabrous skin,PAR (pADPr),significantly reduced vincristine-mediated PAR activation; also recorded: prevention of vincristine-mediated increase in PAR levels in skin
"CC1(c2nc3c(C(N)=O)cc(F)cc3[nH]2)CCCN1 (stereo not drawn) [Compound B, 6-fluoro-2-(2-methylpyrrolidin-2-yl)-1H-benzimidazole-4-carboxamide]","development of mechanical allodynia (mechanical threshold, von Frey)","[1]; Example 1, rats, Compound B 25 or 50 mg/kg/day i.p., 2 days pre-dosing then mini-pump 12 days, tested 3, 6 and 10 days after vincristine start, FIG. 2",attenuated development of mechanical allodynia; also recorded: prevention of vincristine-mediated pain
"C[C@@]1(c2nc3c(C(N)=O)cccc3[nH]2)CCCN1 [Compound C, 2-[(2S)-2-methylpyrrolidin-2-yl]-1H-benzimidazole-4-carboxamide]",development of mechanical allodynia (von Frey),"cisplatin model; weeks 3, 6 and 8",attenuated development of mechanical allodynia; also recorded: attenuation of cisplatin-mediated mechanical allodynia
same,development of heat hyperalgesia (latency to paw withdrawal from radiant heat source),cisplatin model; weeks 3 and 6,attenuated development of heat hyperalgesia; also recorded: attenuation of cisplatin-mediated heat hyperalgesia
same,development of cold hyperalgesia (number of paw lifts from cold plate),oxaliplatin model; week 6,attenuated development of cold hyperalgesia; also recorded: attenuation of oxaliplatin-mediated cold allodynia
same,development of mechanical allodynia (von Frey),oxaliplatin model; weeks 3 and 6,attenuated development of mechanical allodynia; also recorded: attenuation of oxaliplatin-mediated mechanical allodynia
same,cisplatin-induced decrease in amplitude in SNAP recording from the digital nerve,[2],prevented; also recorded: prophylactic effect
"O=C1CCC(=O)N1c1cc(Cc2n[nH]c(=O)c3c2CCCC3)ccc1F [Compound D, 1-(2-fluoro-5-((4-oxo-3,4,5,6,7,8-hexahydrophthalazin-1-yl)methyl)phenyl)pyrrolidine-2,5-dione]","vincristine-induced mechanical allodynia (mechanical threshold, von Frey)","[1]; Example 6, rats, vincristine i.v. by mini-pump 12 days, Compound D 25 or 50 mg/kg/day, 2 days ip pretreatment, days 5, 9 and 12 post-mini-pump implantation, FIG. 10",attenuated vincristine-induced mechanical allodynia; also recorded: dose-dependent; also recorded: prevention of vincristine-mediated pain
"CN1CC[C@]23c4c5ccc(O)c4O[C@H]2[C@@H](O)C=C[C@H]3[C@H]1C5 [Morphine, morphine, reference compound]","reversal of mechanical allodynia (von Frey), positive control",[1]; Example 1,fully reversed mechanical allodynia on all testing days
same,"reversal of mechanical allodynia (von Frey), positive control",[1]; Example 3,fully reversed mechanical allodynia on all testing days
